Strand notation (5' to 3'): a small letter for the sugar, then the base; units joined by * are phosphorothioate-linked, units joined directly phosphodiester-linked; [ ] holds rarer units or linkages, { } end groups; capitals alone tell only the bases. e = 2'-O-(2-methoxyethyl) (MOE); k = constrained ethyl (cEt); [5mC] = 5-methylcytosine; d = 2'-deoxy (DNA)
tested on: human PKK mRNA; test: Antisense inhibition of human PKK mRNA in HepaRG cells, 1,000 nM, MOE/deoxy/cEt oligonucleotides (Example 3); type: cell-based; conditions: HepaRG cells, 1,000 nM antisense oligonucleotide, Table 29
How it was run: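 HepaRG cells at 20,000 per well electroporated with 1,000 nM 16-mer MOE/cEt/deoxy gapmers (phosphorothioate, 5-methylcytosine). After about 24 h, PKK mRNA measured by qRT-PCR with primer probe set RTS3454, normalized to RIBOGREEN total RNA. Reported as percent inhibition versus untreated cells.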

Substance	% inhibition
548587 (eT*eT*k[5mC]*dT*dG*dG*dG*dA*dA*dA*d[5mC]*dT*d[5mC]*kT*k[5mC]*eT; antisense) [compound 548587]	45%
548537 (antisense e[5mC]*e[5mC]*kT*d[5mC]*dA*dA*dT*d[5mC]*d[5mC]*d[5mC]*dA*dA*d[5mC]*k[5mC]*k[5mC]*eA) [compound 548537]	0%
548567 (antisense eA*eG*kA*dT*d[5mC]*d[5mC]*dG*dG*dA*dA*dT*dA*dA*k[5mC]*k[5mC]*eA) [compound 548567]	67%
548590 (eT*eG*kG*dT*d[5mC]*dA*dT*dG*dT*d[5mC]*dA*dA*d[5mC]*kT*kG*eT; antisense) [compound 548590]	35%

same assay, conditions: HepaRG cells, electroporation with 1,000 nM antisense oligonucleotide, approx. 24 hours, PKK mRNA by RT-PCR (RTS3454), relative to untreated control cells; Table 25 experiment

Substance	% inhibition
548206 (eG*eG*kT*d[5mC]*dA*dA*dT*d[5mC]*dT*dG*dA*d[5mC]*dT*kA*kG*eT; antisense) [compound 548206]	45%
548179 (eG*eG*kA*dG*dA*dT*d[5mC]*dT*d[5mC]*dA*dG*dT*dT*kG*k[5mC]*eG; antisense) [compound 548179]	52%
548211 (eA*e[5mC]*k[5mC]*dA*dA*d[5mC]*dA*dA*dT*d[5mC]*dT*d[5mC]*dT*kG*kG*eT; antisense) [compound 548211]	51%

same assay, conditions: HepaRG cells, electroporation with 1,000 nM antisense oligonucleotide, approx. 24 hours, PKK mRNA by RT-PCR (RTS3454), relative to untreated control cells; Table 26 experiment

Substance	% inhibition
548270 (antisense e[5mC]*eT*kG*d[5mC]*dT*dG*dG*dT*dT*dT*dT*dA*dG*kA*k[5mC]*e[5mC]) [compound 548270]	28%
548248 (antisense eT*eG*k[5mC]*dG*dA*dT*dT*dT*dT*d[5mC]*d[5mC]*dA*dT*kG*k[5mC]*eA) [compound 548248]	13%
548228 (eG*eT*kT*dG*dT*dG*dT*dG*dG*d[5mC]*d[5mC]*d[5mC]*dT*k[5mC]*kT*eT; antisense) [compound 548228]	37%
548256 (antisense eG*e[5mC]*kT*d[5mC]*d[5mC]*d[5mC]*d[5mC]*dA*dT*dG*d[5mC]*dA*dT*kA*k[5mC]*eT) [compound 548256]	25%

same assay, conditions: HepaRG cells, electroporation with 1,000 nM antisense oligonucleotide, approximately 24 hours, primer probe set RTS3454, relative to untreated control cells; experiment of Table 23

Substance	% inhibition
547935 (eA*e[5mC]*kT*d[5mC]*dG*dA*dT*dT*dT*dT*d[5mC]*d[5mC]*dA*kT*kA*e[5mC]; antisense) [compound 547935]	27%
547933 (eT*e[5mC]*kG*dA*dT*dT*dT*dT*d[5mC]*d[5mC]*dA*dT*dA*k[5mC]*kA*eT; antisense) [compound 547933]	44%
547978 (antisense e[5mC]*eT*kT*dG*dG*d[5mC]*dA*dA*dA*d[5mC]*dA*dT*dT*k[5mC]*kA*e[5mC]) [compound 547978]	71%

same assay, conditions: HepaRG cells, electroporation with 1,000 nM antisense oligonucleotide, approximately 24 hours, primer probe set RTS3454, relative to untreated control cells; experiment of Table 24

Substance	% inhibition
548035 (e[5mC]*eA*k[5mC]*dT*dA*dT*dA*dG*dA*dT*dG*d[5mC]*dG*k[5mC]*k[5mC]*eA; antisense) [compound 548035]	44%

same assay, conditions: PKK mRNA, HepaRG cells, 1,000 nM antisense oligonucleotide; Table 31

Substance	% inhibition
548685 (antisense eT*eA*kG*dT*d[5mC]*d[5mC]*dA*d[5mC]*dT*dA*d[5mC]*dA*d[5mC]*kA*kG*e[5mC]) [compound 548685]	24%
548636 (antisense e[5mC]*eT*k[5mC]*dT*dA*dT*dA*d[5mC]*dA*dG*d[5mC]*dT*dG*kG*kG*e[5mC]) [compound 548636]	5%
548665 (antisense eG*e[5mC]*kT*d[5mC]*d[5mC]*d[5mC]*dG*dG*d[5mC]*d[5mC]*dA*dT*dT*kA*kG*e[5mC]) [compound 548665]	8%

same assay, conditions: Table 19; HepaRG cells, electroporation with 1,000 nM antisense oligonucleotide, approximately 24 hours; PKK mRNA by RT-PCR (RTS3454), relative to untreated control cells

Substance	% inhibition
548101 (antisense eT*eA*k[5mC]*dT*d[5mC]*dA*dG*d[5mC]*dG*dA*d[5mC]*dT*dT*kT*kG*eG) [compound 548101]	47%
548116 (antisense eT*e[5mC]*kA*dT*dG*d[5mC]*dT*dG*dG*dT*dG*dA*d[5mC]*kT*kG*e[5mC]) [compound 548116]	3%
548082 (eA*eA*kG*d[5mC]*dA*dT*d[5mC]*dT*dT*dT*dT*d[5mC]*d[5mC]*k[5mC]*k[5mC]*e[5mC]; antisense) [compound 548082]	42%
548075 (eA*e[5mC]*k[5mC]*dT*dT*dT*d[5mC]*dT*d[5mC]*d[5mC]*dT*dT*d[5mC]*kG*kA*eG; antisense) [compound 548075]	0%
548113 (antisense eG*eG*kT*dG*dA*d[5mC]*dT*dG*d[5mC]*dA*dT*d[5mC]*dT*kG*kA*eG) [compound 548113]	56%

same assay, conditions: Table 20; HepaRG cells, electroporation with 1,000 nM antisense oligonucleotide, approximately 24 hours; PKK mRNA by RT-PCR (RTS3454), relative to untreated control cells

Substance	% inhibition
547883 (eA*e[5mC]*kT*dG*dG*d[5mC]*dA*dG*d[5mC]*dG*dA*dA*dT*kG*kT*eT; antisense) [compound 547883]	99%
547891 (eA*eT*kT*dG*dT*dT*d[5mC]*d[5mC]*dG*dG*dT*dA*d[5mC]*kT*k[5mC]*eT; antisense) [compound 547891]	84%
547908 (e[5mC]*eA*kA*dT*dT*dT*d[5mC]*dT*dG*dA*dA*dA*dG*kG*kG*e[5mC]; antisense) [compound 547908]	94%
547915 (eT*eG*kG*d[5mC]*dA*dA*d[5mC]*dA*dT*d[5mC]*d[5mC]*dA*d[5mC]*kA*kT*e[5mC]; antisense) [compound 547915]	0%

same assay, conditions: Table 21 experiment; HepaRG cells, electroporation with 1,000 nM antisense oligonucleotide, approx. 24 hours; PKK mRNA by RT-PCR (RTS3454), relative to untreated control cells

Substance	% inhibition
547814 (eG*eG*kG*dT*dG*dG*dA*dA*dT*dG*dT*dG*d[5mC]*kA*k[5mC]*e[5mC]; antisense) [compound 547814]	60%
547755 (eT*eA*kA*dA*dA*dA*dT*dG*dA*dA*d[5mC]*dG*dG*kT*k[5mC]*eT; antisense) [compound 547755]	0%
547779 (antisense eA*eT*kT*dG*d[5mC]*dT*dT*d[5mC]*dT*dT*dG*dG*dA*kG*kG*eT) [compound 547779]	41%
547753 (eA*eT*kG*dA*dA*d[5mC]*dG*dG*dT*d[5mC]*dT*dT*d[5mC]*kA*kA*eG; antisense) [compound 547753]	3%
547836 (eT*e[5mC]*k[5mC]*dA*dG*dA*dA*dA*d[5mC]*dT*dG*d[5mC]*dA*k[5mC]*k[5mC]*eT; antisense) [compound 547836]	50%

same assay, conditions: Table 22 experiment; HepaRG cells, electroporation with 1,000 nM antisense oligonucleotide, approx. 24 hours; PKK mRNA by RT-PCR (RTS3454), relative to untreated control cells

Substance	% inhibition
547883 (eA*e[5mC]*kT*dG*dG*d[5mC]*dA*dG*d[5mC]*dG*dA*dA*dT*kG*kT*eT; antisense) [compound 547883]	0%
547891 (eA*eT*kT*dG*dT*dT*d[5mC]*d[5mC]*dG*dG*dT*dA*d[5mC]*kT*k[5mC]*eT; antisense) [compound 547891]	88%
547908 (e[5mC]*eA*kA*dT*dT*dT*d[5mC]*dT*dG*dA*dA*dA*dG*kG*kG*e[5mC]; antisense) [compound 547908]	71%
547915 (eT*eG*kG*d[5mC]*dA*dA*d[5mC]*dA*dT*d[5mC]*d[5mC]*dA*d[5mC]*kA*kT*e[5mC]; antisense) [compound 547915]	62%

same assay, conditions: Table 27; HepaRG cells, 1,000 nM antisense oligonucleotide; human PKK mRNA

Substance	% inhibition
548313 (eG*e[5mC]*k[5mC]*dT*dT*dT*dG*dA*dG*dG*dG*dA*dG*kT*kG*eG; antisense) [compound 548313]	35%
548381 (e[5mC]*e[5mC]*k[5mC]*dA*d[5mC]*dT*dA*d[5mC]*d[5mC]*dA*dT*dT*dT*kG*kG*eG; antisense) [compound 548381]	0%
548347 (antisense eG*e[5mC]*kT*dG*dT*dT*d[5mC]*dT*dA*dA*dG*d[5mC]*dG*kA*kG*eA) [compound 548347]	31%

same assay, conditions: Table 28; HepaRG cells, 1,000 nM antisense oligonucleotide; human PKK mRNA

Substance	% inhibition
548531 (antisense eG*eT*k[5mC]*dA*dG*dA*dA*dG*dG*d[5mC]*d[5mC]*dT*d[5mC]*kT*kT*eA) [compound 548531]	21%
548467 (e[5mC]*eA*kT*d[5mC]*dA*d[5mC]*dT*dG*dT*dA*d[5mC]*d[5mC]*dT*kA*kT*eA; antisense) [compound 548467]	20%
548492 (antisense eG*e[5mC]*k[5mC]*d[5mC]*dA*dA*dT*dG*dT*d[5mC]*d[5mC]*dT*dA*kA*k[5mC]*e[5mC]) [compound 548492]	51%

same assay, conditions: Table 30; human PKK mRNA, HepaRG cells, 1,000 nM antisense oligonucleotide

Substance	% inhibition
548420 (antisense eT*e[5mC]*k[5mC]*dT*dA*dT*dA*dT*d[5mC]*dA*d[5mC]*dT*dG*kT*k[5mC]*e[5mC]) [compound 548420]	58%

Source: US11840686B2, “Modulation of prekallikrein (PKK) expression” (Ionis Pharmaceuticals, Inc., priority 2013, dated 2023)
